The values that follow are results of earlier work, collected in US20100172993A1, “PARTICLES FOR DELIVERY OF ACTIVE INGREDIENTS, PROCESS OF MAKING AND COMPOSITIONS THEREOF” (priority 2006, published 2010).

For this data set the following is noted: topical insect repellent.

For `CCN(CC)C(=O)c1ccccc1` [NN Diethyl Benzamide], the “Absorption of the active ingredient in the blood plasma after dermal application” value is given as “no absorption of the active ingredient in the blood plasma”.
